Test results as given in patent US12501898B2, “Synergistic pesticidal compositions and methods for delivery of active ingredients” (0903608 B.C. Ltd., priority 2017, dated 2025).
Values after ≈ are worked out from the molar mass of the structure shown. Values joined by “and” are separate entries in the source; they are usually repeats but may differ in a detail not shown here. Identical values can stand only once. Blank lines part the entries; values can stand above or below the compound they belong to.

How the values were obtained:
[1] = test system: Botrytis cinerea; assay: Synergistic Growth Inhibition Assay (MIC / FIC index, resazurin) against Botrytis cinerea; format: cell-based
Description: (§1) In some embodiments, the synergistic action between the pesticidal active ingredient, and the C6-C10 unsaturated aliphatic acid components of the pesticidal compositions according to embodiments of the present disclosure was tested using a Synergistic Growth Inhibition Assay, which is derived from and related to a checkerboard assay as is known in the art for testing of combinations of antimicrobial agents. In the Synergistic Growth Inhibition Assay used in accordance with some embodiments of the present disclosure, multiple dilutions of combinations of pesticidal active ingredient and C6-C10 (or alternatively C11 or C12) unsaturated aliphatic acid agents are tested in individual cells for inhibitory activity against a target pest or pathogenic organism. In one such embodiment, the combinations of pesticidal active ingredient and C6-C10 unsaturated aliphatic acid agents may preferably be tested in decreasing concentrations. In a further such embodiment, the combinations of pesticidal active ingredient and C6-C10 (or alternatively C11 or C12) unsaturated aliphatic acid agents may be tested in increasing concentrations. These multiple combinations of the pesticidal active ingredient and C6-C10 (or alternatively C11 or C12) unsaturated aliphatic acid agents may be prepared in 96-well microtiter plates. In one such embodiment, the Synergistic Growth Inhibition Assay then comprises rows which each contain progressively decreasing concentrations of the pesticidal active ingredient and C6-C10 (or alternatively C11 or C12) unsaturated aliphatic acid agents to test for the MIC of the agents in combination at which growth of the target pest or pathogen is inhibited. Thus, each well of the microtiter plate is a unique combination of the two agents, at which inhibitory efficacy of the combination against the target pest or pathogen can be determined.
In one embodiment according to the present disclosure, for each row of microtiter cells in the Synergistic Growth Inhibition Assay, the FIC index is calculated from the lowest concentration of the pesticidal active ingredient and C6-C10 unsaturated aliphatic acid agents necessary to inhibit growth of a target pest or pathogen. The FIC of each component is derived by dividing the concentration of the agent present in that well of the microtiter plate by the minimal inhibitory concentration (MIC) needed of that agent alone to inhibit growth of the target pest or pathogen. The FIC index is then the sum of these values for both agents in that well of the microtiter plate. […] Fractional inhibitory concentration indices may then used as measure of synergy. […] When the FIC index is equal to 1, the combination is additive. […]

[2] = test system: Fusarium oxysporum; assay: Synergistic Growth Inhibition Assay (MIC / FIC index, resazurin) against Fusarium oxysporum; format: cell-based; settings: for MIC (B): Compound B (unsaturated aliphatic acid) alone, Fusarium oxysporum
Description: as §1
(§2) In one embodiment according to the present disclosure, for each row of microtiter cells in the Synergistic Growth Inhibition Assay, the FIC index is calculated from the lowest concentration of the pesticidal active ingredient and C6-C10 unsaturated aliphatic acid agents necessary to inhibit growth of a target pest or pathogen. The FIC of each component is derived by dividing the concentration of the agent present in that well of the microtiter plate by the minimal inhibitory concentration (MIC) needed of that agent alone to inhibit growth of the target pest or pathogen. The FIC index is then the sum of these values for both agents in that well of the microtiter plate. […] Fractional inhibitory concentration indices may then used as measure of synergy. […] When the FIC index is equal to 1, the combination is additive.
(§3) In some embodiments of the present disclosure, the exemplary Synergistic Growth Inhibition Assay was conducted starting with an initial composition comprising a pesticidal active ingredient agent at its individual MIC and a C6-C10 (or alternatively C11 or C12) unsaturated aliphatic acid agent at its individual MIC in the first well of a row on a 96 well microtiter plate. Then, serial dilutions of these initial compositions in successive wells in the row of the microtiter plate were used to assay the pesticidal composition under the same conditions to determine the concentration of the composition combining the two agents corresponding to the microtiter well in which growth inhibition of the target pest or organism ceases.
In some embodiments, Fusarium oxysporum was used as a representative pest organism or pathogen to determine synergy in pesticidal compositions comprising a pesticidal active ingredient agent and a C6-C10 (or alternatively C11 or C12) unsaturated aliphatic acid agent. Resazurin dye (also known as Alamar blue dye) was used as an indicator to determine the presence of growth or inhibition of growth of Fusarium oxysporum in the wells of the 96 well microtiter plates used in the exemplary Synergistic Growth Inhibition Assay.

[3] = test system: Sclerotinia sclerotiorum; assay: Synergistic Growth Inhibition Assay (MIC / FIC index) against Sclerotinia sclerotiorum; format: cell-based; settings: for MIC (B): individual compound alone, incubation 7 days
Description: as §1, §2, §3
A culture of the representative fungal pathogen, namely Fusarium oxysporum or Botrytis cinerea, for example, is grown to exponential phase in potato dextrose broth (PDB).

[4] = Solubility / effective solubilized concentration in 10% DMSO/90% PDB by HPLC
Description: This solution was diluted 10-fold in potato dextrose broth (PDB) to give a concentration of 0.05 mg/mL in 10% DMSO/90% PDB.
This solution was diluted 10-fold in potato dextrose broth (PDB) to give a concentration of 0.1 mg/mL in 10% DMSO/90% PDB.

[5] = test system: Trichoplusia ni; assay: In-vitro insecticidal efficacy on treated modified McMorran artificial diet (Colby synergy); format: in vivo, Trichoplusia ni (cabbage looper); settings: Pylon […]
Description: A stock solution was prepared for each of trans-2-hexenoic acid and trans-3-hexenoic acid (both available from Sigma-Aldrich, St. Louis, MO, USA), by dissolving each exemplary unsaturated aliphatic acid in 100% dimethylsulfoxide (DMSO) at a concentration of 20 mg/mL (20,000 ppm). A stock solution for the potassium salt of (2E,4E)-2,4-hexadienoic acid was prepared by dissolving the salt in water to form a 20 mg/mL (20,000 ppm) solution.
An artificial diet suitable for Trichoplusia ni (cabbage looper caterpillar) was prepared according to the modified McMorran artificial diet recipe known in the entomology field (containing agar, casein, potassium hydroxide, alphacel, Wesson's salt mix, sugar, toasted wheat germ, choline chloride, ascorbic acid, methyl paraben, aureomycin, linseed oil and vitamin solution).
The treated artificial diet was then used to fill each well of a 24-well treatment plate with approximately 0.5 mL of artificial diet, which was allowed to solidify at room temperature and stored overnight at approximately 4 C. […] Each experiment contained 3 replicates, and was repeated at least 3 times.
(§4) While for SF<1, antagonism is present and for SF=1, the efficacy of the compounds is merely additive.

[6] = test system: Trichoplusia ni; assay: In-planta insecticidal efficacy on sprayed green cabbage plants (Colby synergy); format: in vivo, Trichoplusia ni (cabbage looper); settings: […] Pylon, 0.06 mg/mL acid (salt)
Description: A stock solution for the potassium salt of (2E,4E)-2,4-hexadienoic acid was prepared by dissolving the salt in water to form a 20 mg/mL (20,000 ppm) solution.
Each experiment was repeated at least 3 times.
as §4

[7] = individual compound alone, incubation 48 hours

MIC (B) [1, 7]: 78.12 µg/mL | MIC (B) [3]: 39.06 µg/mL and 78.12 µg/mL | MIC of individual compound alone (MIC (A) or MIC (B)) ([2]; 24 hour incubation): 71.72 µg/mL | MIC of individual compound alone (MIC (A) or MIC (B)) ([2]; 48 hours incubation): 312.5 µg/mL
Compound: C=CCCCCCCCC(=O)O [9-Decenoic acid, 9-decenoic acid]

MIC of individual compound alone (MIC (A) or MIC (B)) ([2]; 48 hours incubation): 156.2 µg/mL
Compound: CCCC/C=C/CC(=O)O [Trans-3-octenoic acid, trans-3-octenoic acid]

MIC (B) [3]: 78.12 µg/mL
Compound: CCCCCCCC/C=C/C(=O)O [Trans-2-undecenoic acid, trans-2-undecenoic acid]

MIC (B) [3]: 78.12 µg/mL | MIC of individual compound alone (MIC (A) or MIC (B)) ([2]; 24 hour incubation): 312.5 µg/mL
Compound: CCC/C=C/C(=O)O [Trans-2-hexenoic acid, trans-2-hexenoic acid]
72 hr Obs. Efficacy ([5]; 0.05 mg/mL acid (salt)): 0% | 90 hr Obs. Efficacy ([5]; 0.05 mg/mL acid (salt)): 0% | 120 hr Obs. Efficacy ([5]; 0.05 mg/mL acid (salt)): 0% | 72 hr Obs. Efficacy ([5]; 0.30 mg/mL acid (salt)): 0% | 90 hr Obs. Efficacy ([5]; 0.30 mg/mL acid (salt)): 0% | 120 hr Obs. Efficacy ([5]; 0.30 mg/mL acid (salt)): 0% | Observed Efficacy (%) ([6]; after 48 hours): 0% | Observed Efficacy (%) ([6]; after 72 hours): 0%

MIC (B) ([2]; 48 hours incubation): 156.2 µg/mL
Compound: CCCCC/C=C/C(=O)O [Trans-2-octenoic acid, trans-2-octenoic acid]

MIC (B) ([2]; 48 hours incubation): 156.2 µg/mL | MIC (B) ([2]; 48 hours incubation, listed as Trans-2-Decenoic acid): 78.12 µg/mL | MIC of individual compound alone (MIC (A) or MIC (B)) ([2]; 24 hour incubation): 36.25 µg/mL
Compound: CCCCCCC/C=C/C(=O)O [Trans-2-decenoic acid, trans-2-decenoic acid]

MIC (B) ([2]; 48 hours incubation): 312.5 µg/mL
Compound: C=CCCCCCC(=O)O [7-Octenoic acid, 7-octenoic acid]

MIC (B) [3]: 156.2 µg/mL | MIC (B) ([2]; 48 hours incubation): 156.2 µg/mL | MIC of individual compound alone (MIC (A) or MIC (B)) ([2]; 24 hour incubation): 312.5 µg/mL | MIC of individual compound alone (MIC (A) or MIC (B)) ([2]; 48 hours incubation): 312.5 µg/mL
Compound: CC/C=C/CC(=O)O [Trans-3-hexenoic acid, trans-3-hexenoic acid]
72 hr Obs. Efficacy ([5]; 0.05 mg/mL acid (salt)): 0% | 90 hr Obs. Efficacy ([5]; 0.05 mg/mL acid (salt)): 0% | 120 hr Obs. Efficacy ([5]; 0.05 mg/mL acid (salt)): 0% | 72 hr Obs. Efficacy ([5]; 0.30 mg/mL acid (salt)): 4% | 90 hr Obs. Efficacy ([5]; 0.30 mg/mL acid (salt)): 4% | 120 hr Obs. Efficacy ([5]; 0.30 mg/mL acid (salt)): 0%

The remaining lines, values behind:

Compound: CCCCC=CCC(=O)O [3-Octenoic acid, 3-octenoic acid]
MIC of individual compound alone (MIC (A) or MIC (B)) ([1]; compound alone, 24 hour incubation): 146.6 µg/mL

Compound: N#Cc1c[nH]cc1-c1cccc2c1OC(F)(F)O2 [Fludioxonil, fludioxonil, reference compound]
MIC of individual compound alone (MIC (A) or MIC (B)) ([2]; 24 hour incubation): 0.24063 µg/mL

Compound: CCCC=CCC(=O)O [3-Heptenoic acid, 3-heptenoic acid]
MIC (B) [3]: 78.12 µg/mL | MIC of individual compound alone (MIC (A) or MIC (B)) ([2]; 48 hours incubation): 156.2 µg/mL

Compound: C/C=C/C=C/C(=O)O [(2E,4E)-2,4-hexadienoic acid]
MIC of individual compound alone (MIC (A) or MIC (B)) ([2]; 24 hour incubation): 125 µg/mL

Compound: CCCCCC=CCC(=O)O [3-Nonenoic acid, 3-nonenoic acid]
MIC (B) [3]: 39.06 µg/mL and 78.12 µg/mL and 156.2 µg/mL

Compound: COC(=O)N(OC)c1ccccc1COc1ccn(-c2ccc(Cl)cc2)n1 [Pyraclostrobin, pyraclostrobin]
solubility in 10% DMSO/90% PDB [4]: 15.4 µg/mL (≈ 39.7 µM)

Compound: CC=CCCC(=O)O [4-Hexenoic acid, 4-hexenoic acid]
MIC ([3]; Sclerotinia sclerotiorum, […], Compound B (unsaturated aliphatic acid) alone, 7 days incubation): 156 µg/mL

Compound: C=CCCCC(=O)O [5-Hexenoic acid, 5-hexenoic acid]
MIC (B) [3]: 156.2 µg/mL | MIC (B) ([2]; 48 hours incubation): 156.2 µg/mL

Compound: CO/C=C(/C(=O)OC)c1ccccc1Oc1cc(Oc2ccccc2C#N)ncn1 [Azoxystrobin, reference compound]
MIC of individual compound alone (MIC (A) or MIC (B)) ([3]; compound alone, 7 days incubation): 150 µg/mL | MIC of individual compound alone (MIC (A) or MIC (B)) ([2]; 48 hours incubation): 150 µg/mL

Compound: C/C=C(/C)C(=O)O[C@H]1C[C@@H](OC(C)=O)[C@@]2(C)CO[C@H]3[C@H]4O[C@@H]5C[C@@H](c6ccoc6)C(C)=C5[C@@]4(C)[C@H](CC(=O)OC)[C@]1(C)[C@@H]32 [Salannin]
MIC ([1]; Botrytis cinerea, 48 h, individual compound alone, incubation 48 hours): 50 µg/mL

Compound: CCCCCCC=CCC(=O)O [3-Decenoic acid, 3-decenoic acid]
MIC (B) [1, 7]: 39.06 µg/mL and 78.12 µg/mL | MIC (B) [3]: 39.06 µg/mL and 78.12 µg/mL | MIC of individual compound alone (MIC (A) or MIC (B)) ([2]; 24 hour incubation): 73.36 µg/mL | MIC of individual compound alone (MIC (A) or MIC (B)) ([2]; 48 hours incubation): 312.5 µg/mL and 78.12 µg/mL

Compound: C/C=C/C=C/C(=O)[O-].[K+] [(2E,4E)-2,4-hexadienoic acid, potassium salt]
MIC of individual compound alone (MIC (A) or MIC (B)) ([2]; 24 hour incubation): 625 µg/mL
